Laboratory results from patent US20110268818A1, “NGAL-BINDING SIDEROPHORES AND USE THEREOF TO TREAT IRON DEFICIENCY AND IRON OVERLOAD” (priority 2008, published 2011).
Structures can show the parent of a compound that is named as a salt.

Legend:
[1] = Siderophore:iron binding assay (paper chromatography); details: 55Fe mobilised by compound on paper chromatogram developed in water; Yes/No
Source text: Siderophore:Iron Binding Assay. To test whether candidates bound iron directly, candidates (1 nmole) were mixed with ^55Fe (1 pmole), and then separated bound from free ^55Fe using paper chromatography developed in water.
Paper chromatography: The Fe-Siderophore Binding Assay: The concept underlying the Ngal-siderophore-Fe binding assay is that the urinary molecule provides an iron binding siderophore, and that the Ngal protein provides the carrier which retains the siderophore:Fe on the 10 KDa filter. […] To directly test this idea, we will mix 55Fe with HMDB compounds and then separate bound from free 55Fe by using paper chromatography. […] The assay also provides an independent means to follow the purification of the urinary siderophore. Using this assay, we can measure the specific activity of the fractions to identify the peak activity, as well as to compare the urinary fraction with enterochelin to establish relative units of activity.

[2] = molecular target: T1, NGAL (Homo sapiens, UniProt P80188); test: NGAL:siderophore:iron binding assay (retention on 10 kDa filter); details: apoNGAL 10 μM, 55Fe, compound 10 μM, pH 7.4, washed on 10 kDa filter
T1 construct: made in house; host or cells: E. coli BL-21
T1 sequence (P80188 21-198): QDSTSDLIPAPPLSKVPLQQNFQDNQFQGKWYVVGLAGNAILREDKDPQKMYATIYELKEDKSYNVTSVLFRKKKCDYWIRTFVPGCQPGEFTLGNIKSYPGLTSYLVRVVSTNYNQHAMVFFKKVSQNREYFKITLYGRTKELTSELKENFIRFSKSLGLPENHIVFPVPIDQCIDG
Procedure: NGAL:Siderophore:Iron Binding Assays. […] After 60 minutes, the mixture was washed 3 times (YM-10) or alternatively gel filtered (PD-10, GE Biosciences). Ent loaded NGAL served as a positive control. Ferric citrate (1 mM) or Ent:iron (500 μM) served as competitors of ^55Fe binding.
After 60 minutes at room temperature, the mixture was then washed 3 times on a 10-kDa membrane (Amicon YM-10; Millipore Corp.). Ngal loaded with iron-free enterochelin (rather than apo-Ngal) served as a positive control for iron capture. Ferric citrate (1 mM) or iron-loaded enterochelin (siderophore:Fe, […]) was used as a competitor of 55Fe binding.

Compound	Fe: Chromatography [1]	NGAL: Chelator: Fe % Retention [2]
NCC(=O)CCC(=O)O [5-Aminolevulinic acid]	No	3%
O=C(O)/C=C(/CC(=O)O)C(=O)O [Cis-Aconitic acid]	No	11%
NCCc1cc(O)c(O)c(O)c1 [5-Hydroxydopamine]	No	10%
N[C@@H](Cc1c[nH]c2ccc(O)cc12)C(=O)O [5-Hydroxytryptophan]	No	4%
O=C(O)c1cc(O)ccc1O [Gentistic Acid]	No	6%
NCC(=O)c1ccc(O)c(O)c1 (racemic) [DL- Norepinephrine•HCl]	No	5%
O=C1CC(C(=O)O)NC(=O)N1 (racemic) [DL- Dihdroorotic acid]	No	7%
COc1ccccc1O [Guaiacol]	No	4%
COc1cc(/C=C/C(=O)O)ccc1O [Ferulic acid]	No	3%
NC(=O)NC1NC(=O)NC1=O (centres unmarked) [Allantoin]	No	7%
N[C@@H](Cc1ccccc1)C(=O)O [L-Phenylalanine]	No	8%
Nc1c(O)cccc1C(=O)O [3- Hydroxyanthranilic acid]	No	10%
CC(=O)NC(CC(=O)O)c1ccccc1 (racemic) [N-Acetyl-DL-Â- phenylalanine]	No	5%
N[C@@H](Cc1c[nH]c2ccccc12)C(=O)O [L-Tryptophan]	No	5%
C=CC1=C(C)C(/C=c2/[nH]/c(=C\c3[nH]c(/C=C4\NC(=O)C(C)=C4C=C)c(C)c3CCC(=O)O)c(CCC(=O)O)c2C)NC1=O (centres unmarked) [Biliverdin HCl]	No	9%
O=C(O)c1cccnc1 [Nicotinic acid]	No	3%
O=C(O)Cc1cc(O)ccc1O [Homogentisic acid]	No	7%
Maleic acid	No	4%
Cc1ncc(CO)c(C=O)c1O [Pyridoxal]	No	1%
O=C(/C=C/c1ccc(O)c(O)c1)OCCc1ccccc1 [Caffeic acid phenethyl ester]	No	8%
Cc1ncc(CO)c(C(=O)O)c1O [4-Pyridoxic Acid]	No	12%
O=C(O)c1cc(=O)[nH]c(=O)[nH]1 [Orotic acid]	No	13%
